# Activity calls are given as the source filed them. The calls are words filed in the database; no cut-off is given here.
# Assays:
# [1] = biological target: T1, Protein O-GlcNAcase (Mus musculus) (UniProt Q9EQQ9); assay: Inhibition of OGA in mouse NIH/3T3 cells assessed as increase in O-GlcNAcylation at 20 uM after 24 hrs by Western blot analysis; format: cell-based
# T1 sequence (whole entry): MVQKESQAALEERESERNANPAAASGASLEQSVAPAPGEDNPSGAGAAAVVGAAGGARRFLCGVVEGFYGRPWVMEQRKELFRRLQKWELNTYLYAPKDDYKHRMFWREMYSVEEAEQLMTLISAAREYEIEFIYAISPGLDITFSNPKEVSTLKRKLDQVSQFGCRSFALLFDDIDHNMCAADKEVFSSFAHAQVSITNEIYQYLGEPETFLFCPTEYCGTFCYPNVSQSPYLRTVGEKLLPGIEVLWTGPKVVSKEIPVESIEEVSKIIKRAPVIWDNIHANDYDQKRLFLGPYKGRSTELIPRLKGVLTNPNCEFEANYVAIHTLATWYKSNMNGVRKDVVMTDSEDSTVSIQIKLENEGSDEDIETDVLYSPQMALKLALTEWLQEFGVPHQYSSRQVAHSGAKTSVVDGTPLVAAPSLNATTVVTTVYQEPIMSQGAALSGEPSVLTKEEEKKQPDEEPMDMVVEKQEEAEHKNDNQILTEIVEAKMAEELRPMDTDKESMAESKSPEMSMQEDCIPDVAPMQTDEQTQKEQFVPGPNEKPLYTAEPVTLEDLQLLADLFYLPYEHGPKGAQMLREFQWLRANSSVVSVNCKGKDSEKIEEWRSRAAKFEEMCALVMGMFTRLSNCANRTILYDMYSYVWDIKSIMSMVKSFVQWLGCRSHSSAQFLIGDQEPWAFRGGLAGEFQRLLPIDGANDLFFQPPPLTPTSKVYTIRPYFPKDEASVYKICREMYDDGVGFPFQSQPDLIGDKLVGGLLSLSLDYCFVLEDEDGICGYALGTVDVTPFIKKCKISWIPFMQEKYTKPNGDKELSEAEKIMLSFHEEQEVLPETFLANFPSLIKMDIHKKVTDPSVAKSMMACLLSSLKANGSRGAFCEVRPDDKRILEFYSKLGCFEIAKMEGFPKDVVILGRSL
# [2] = species on record: Mus musculus; assay: Modulation of OGT/OGA in mouse NIH/3T3 cells assessed as increase in O-GlcNAcylation at 5 to 100 uM by Western blot analysis; format: cell-based
# [3] = Cytotoxicity against mouse NIH/3T3 cells assessed as cell viability at 5 uM after 48 hrs by MTT assay relative to control; format: cell-based, NIH3T3; details: read-out: Activity
# [4] = Cytotoxicity against mouse NIH/3T3 cells assessed as cell viability at 10 uM after 48 hrs by MTT assay relative to control; format: cell-based, NIH3T3; details: read-out: Activity
# [5] = Cytotoxicity against mouse NIH/3T3 cells assessed as cell viability at 20 uM after 48 hrs by MTT assay relative to control; format: cell-based, NIH3T3; details: read-out: Activity
# [6] = Cytotoxicity against mouse NIH/3T3 cells assessed as cell viability at 50 uM after 48 hrs by MTT assay relative to control; format: cell-based, NIH3T3; details: read-out: Activity
# [7] = Cytotoxicity against mouse NIH/3T3 cells assessed as cell viability at 100 uM after 48 hrs by MTT assay relative to control; format: cell-based, NIH3T3; details: read-out: Activity
# [8] = Cytotoxicity against human HepG2 cells assessed as cell viability at 5 uM after 48 hrs by MTT assay relative to control; format: cell-based; details: read-out: Activity
# [9] = Cytotoxicity against human HepG2 cells assessed as cell viability at 10 uM after 48 hrs by MTT assay relative to control; format: cell-based; details: read-out: Activity
# [10] = Cytotoxicity against human HepG2 cells assessed as cell viability at 20 uM after 48 hrs by MTT assay relative to control; format: cell-based; details: read-out: Activity
# [11] = Cytotoxicity against human HepG2 cells assessed as cell viability at 50 uM after 48 hrs by MTT assay relative to control; format: cell-based; details: read-out: Activity
# [12] = Cytotoxicity against human HepG2 cells assessed as cell viability at 100 uM after 48 hrs by MTT assay relative to control; format: cell-based; details: read-out: Activity
# [13] = Cytotoxicity against human MCF7 cells assessed as cell viability at 5 uM after 48 hrs by MTT assay relative to control; format: cell-based; details: read-out: Activity
# [14] = Cytotoxicity against human MCF7 cells assessed as cell viability at 10 uM after 48 hrs by MTT assay relative to control; format: cell-based; details: read-out: Activity
# [15] = Cytotoxicity against human MCF7 cells assessed as cell viability at 20 uM after 48 hrs by MTT assay relative to control; format: cell-based; details: read-out: Activity
# [16] = Cytotoxicity against human MCF7 cells assessed as cell viability at 50 uM after 48 hrs by MTT assay relative to control; format: cell-based; details: read-out: Activity
# [17] = Cytotoxicity against human MCF7 cells assessed as cell viability at 100 uM after 48 hrs by MTT assay relative to control; format: cell-based; details: read-out: Activity
# [18] = Cytotoxicity against human HeLa cells assessed as cell viability at 5 uM after 48 hrs by MTT assay relative to control; format: cell-based; details: read-out: Activity
# [19] = Cytotoxicity against human HeLa cells assessed as cell viability at 10 uM after 48 hrs by MTT assay relative to control; format: cell-based; details: read-out: Activity
# [20] = Cytotoxicity against human HeLa cells assessed as cell viability at 20 uM after 48 hrs by MTT assay relative to control; format: cell-based; details: read-out: Activity
# [21] = Cytotoxicity against human HeLa cells assessed as cell viability at 50 uM after 48 hrs by MTT assay relative to control; format: cell-based; details: read-out: Activity
# [22] = Cytotoxicity against human HeLa cells assessed as cell viability at 100 uM after 48 hrs by MTT assay relative to control; format: cell-based; details: read-out: Activity
# [23] = Inhibition of lysosomal hexosaminidase (unknown origin); parameters: species or system Homo sapiens
smiles,measurement,setting,value
CCNC1=N[C@@H]2[C@@H](O)[C@H](O)[C@@H](CO)O[C@@H]2S1,inhibition,[1],Active
CC(=O)OC[C@H]1OC(OC(C)=O)[C@H](NC(=O)C(F)(F)F)[C@@H](OC(C)=O)[C@@H]1OC(C)=O (stereo not given in full),Activity,[2],Active
same,inhibition,[1],Active
same,"viability at 48 h, 5 µM",[3],97.6%
same,"viability at 48 h, 10 µM",[4],94.1%
same,"viability at 48 h, 20 µM",[5],85.6%
same,"viability at 48 h, 50 µM",[6],61.3%
same,"viability at 48 h, 100 µM",[7],35.9%
same,"viability at 48 h, 5 µM",[8],96.9%
same,"viability at 48 h, 10 µM",[9],94.7%
same,"viability at 48 h, 20 µM",[10],94.2%
same,"viability at 48 h, 50 µM",[11],91.2%
same,"viability at 48 h, 100 µM",[12],84.9%
same,"viability at 48 h, 5 µM",[13],98.3%
same,"viability at 48 h, 10 µM",[14],97.4%
same,"viability at 48 h, 20 µM",[15],97.1%
same,"viability at 48 h, 50 µM",[16],96.4%
same,"viability at 48 h, 100 µM",[17],90.5%
same,"viability at 48 h, 5 µM",[18],101%
same,"viability at 48 h, 10 µM",[19],96.2%
same,"viability at 48 h, 20 µM",[20],96%
same,"viability at 48 h, 50 µM",[21],84.1%
same,"viability at 48 h, 100 µM",[22],76.1%
CC(=O)N[C@H]1/C(=N/OC(=O)Nc2ccccc2)O[C@H](CO)[C@@H](O)[C@@H]1O [PUGNAC],inhibition,[1],Active
same,Ki,[23],30 to 40 nM
